ChEMBL document CHEMBL1201862, “PubChem BioAssay data set” (2004)
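Test compounds were applied to cells in 96-well plates for 48 hours at 5 doses. Abbreviation: GI50, concentration required for 50% inhibition of growth.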 Activity calls are given as the source filed them. Rule as the data show it: active = GI50 up to about 1.1 µM and inactive = higher.

What was measured:
Test in all cases: NCI anticancer screen, dose series, 48 h
786-0 = tested on: 786-0
A498 = tested on: A498
BT-549 = tested on: BT-549
HCT-116 = tested on: HCT-116
HCT-15 = tested on: HCT-15
HT-29 = tested on: HT-29
IGROV-1 = tested on: IGROV-1
K562 = tested on: K562
LOX IMVI = tested on: LOX IMVI
M14 = tested on: M14
MDA-MB-435 = tested on: MDA-MB-435
NCI-H23 = tested on: NCI-H23
OVCAR-3 = tested on: OVCAR-3
OVCAR-8 = tested on: OVCAR-8
RPMI-8226 = tested on: RPMI-8226
SK-MEL-2 = tested on: SK-MEL-2
SK-OV-3 = tested on: SK-OV-3
T47D = tested on: T47D
UO-31 = tested on: UO-31
DMS-273 = tested on: DMS-273

## COc1ccc(/C=C2\C[C@H]3[C@@H]4CCC5=CC(=O)CC[C@]5(C)[C@H]4CC[C@]3(C)C2=O)cc1OC
786-0
  GI50: 35.8 µM (inactive)
A498
  GI50: 3.25 µM (inactive)
BT-549
  GI50: 6.34 µM (inactive)
HCT-116
  GI50: 8.05 µM (inactive)
HCT-15
  GI50: 9.25 µM
HT-29
  GI50: 6.87 µM (inactive)
IGROV-1
  GI50: 10.4 µM (inactive)
K562
  GI50: 3.8 µM (inactive)
LOX IMVI
  GI50: 11.9 µM (inactive)
M14
  GI50: 14.9 µM (inactive)
MDA-MB-435
  GI50: 5.48 µM (inactive)
NCI-H23
  GI50: 17.6 µM (inactive)
OVCAR-3
  GI50: 17.5 µM (inactive)
OVCAR-8
  GI50: 2.6 µM (inactive)
RPMI-8226
  GI50: 3.89 µM (inactive)
SK-MEL-2
  GI50: 4.13 µM (inactive)
SK-OV-3
  GI50: 0.0627 µM (active)
T47D
  GI50: 3.56 µM (inactive)
UO-31
  GI50: 2.42 µM (inactive)

## c1ccc(C[n+]2cccc(-c3cc4ccccc4[nH]3)c2)cc1
786-0
  GI50: 50.1 µM (inactive)
A498
  GI50: 39.5 µM (inactive)
BT-549
  GI50: 13.4 µM (inactive)
HCT-116
  GI50: 32.5 µM (inactive)
HCT-15
  GI50: > 100 µM
HT-29
  GI50: 32.5 µM (inactive)
IGROV-1
  GI50: 19.4 µM (inactive)
K562
  GI50: 21.6 µM (inactive)
LOX IMVI
  GI50: 19.1 µM (inactive)
M14
  GI50: 21.7 µM (inactive)
MDA-MB-435
  GI50: 18.5 µM (inactive)
NCI-H23
  GI50: 16.4 µM (inactive)
OVCAR-3
  GI50: 31 µM (inactive)
OVCAR-8
  GI50: 38.3 µM (inactive)
RPMI-8226
  GI50: 17.6 µM (inactive)
SK-MEL-2
  GI50: 16.6 µM (inactive)
SK-OV-3
  GI50: > 100 µM (inactive)
T47D
  GI50: 23.6 µM (inactive)
UO-31
  GI50: > 100 µM (inactive)

## O=C1NC(=S)N(c2cccc3ccccc23)C(=O)/C1=C/c1c[nH]c2ccccc12
786-0
  GI50: 1.71 µM (inactive)
A498
  GI50: 2.05 µM (inactive)
BT-549
  GI50: 1.79 µM (inactive)
HCT-116
  GI50: 2.01 µM (inactive)
HCT-15
  GI50: 1.67 µM
HT-29
  GI50: 2.17 µM (inactive)
IGROV-1
  GI50: 2.03 µM (inactive)
K562
  GI50: 2.38 µM (inactive)
LOX IMVI
  GI50: 1.82 µM (inactive)
M14
  GI50: 1.84 µM (inactive)
MDA-MB-435
  GI50: 2.34 µM (inactive)
NCI-H23
  GI50: 1.81 µM (inactive)
OVCAR-3
  GI50: 3.38 µM (inactive)
OVCAR-8
  GI50: 2.39 µM (inactive)
RPMI-8226
  GI50: 2.02 µM (inactive)
SK-MEL-2
  GI50: 1.69 µM (inactive)
SK-OV-3
  GI50: 4.02 µM (inactive)
T47D
  GI50: 3.89 µM (inactive)
UO-31
  GI50: 2.15 µM (inactive)

## CCOC(C[C@H](O[Si](C)(C)C(C)(C)C)[C@H]1COC(=S)S1)OCC
786-0
  GI50: > 100 µM (inactive)
DMS-273
  GI50: 30.1 µM (inactive)
HCT-116
  GI50: 39.2 µM (inactive)
HCT-15
  GI50: 55.1 µM
HT-29
  GI50: 14.5 µM (inactive)
K562
  GI50: 41.3 µM (inactive)
LOX IMVI
  GI50: 52.6 µM (inactive)
M14
  GI50: 52.1 µM (inactive)
NCI-H23
  GI50: 53.5 µM (inactive)
OVCAR-3
  GI50: 59.4 µM (inactive)
OVCAR-8
  GI50: 66.5 µM (inactive)
RPMI-8226
  GI50: 32.1 µM (inactive)
UO-31
  GI50: 35 µM (inactive)

## O=C(NC(CO)Cc1ccc(Oc2cc(CC(CO)NC(=O)OCc3ccccc3)ccc2OC(=O)OCc2ccccc2)cc1)OCc1ccccc1 (stereo not drawn)
786-0
  GI50: 25.1 µM (inactive)
A498
  GI50: 14.7 µM (inactive)
BT-549
  GI50: 11.7 µM (inactive)
HCT-116
  GI50: 16.7 µM (inactive)
HCT-15
  GI50: 24.9 µM
HT-29
  GI50: 14.2 µM (inactive)
IGROV-1
  GI50: 20.3 µM (inactive)
K562
  GI50: 10.9 µM (inactive)
LOX IMVI
  GI50: 12.1 µM (inactive)
M14
  GI50: 18.2 µM (inactive)
MDA-MB-435
  GI50: 16.6 µM (inactive)
NCI-H23
  GI50: 16.1 µM (inactive)
OVCAR-3
  GI50: 19.5 µM (inactive)
OVCAR-8
  GI50: 15.4 µM (inactive)
RPMI-8226
  GI50: 2.94 µM (inactive)
SK-MEL-2
  GI50: 19.3 µM (inactive)
SK-OV-3
  GI50: 21.3 µM (inactive)
T47D
  GI50: 5.18 µM (inactive)
UO-31
  GI50: 18.2 µM (inactive)

## CC(=O)Nc1ccc2c3c(cc(O)c2c1)N(C(=O)CCCC(=O)Nc1ccc2c4c(cc(O)c2c1)N(C(=O)OC(C)(C)C)CC4CCl)CC3CCl (stereo not drawn)
786-0
  GI50: 1.23 µM (inactive)
A498
  GI50: 1.02 µM (active)
BT-549
  GI50: 0.881 µM (active)
HCT-116
  GI50: 0.851 µM (active)
HCT-15
  GI50: > 50 µM
HT-29
  GI50: 1.19 µM (inactive)
IGROV-1
  GI50: 1.05 µM (active)
K562
  GI50: 1.22 µM (inactive)
LOX IMVI
  GI50: 0.904 µM (active)
M14
  GI50: 3.22 µM (inactive)
MDA-MB-435
  GI50: 0.938 µM (active)
NCI-H23
  GI50: 1.42 µM (inactive)
OVCAR-3
  GI50: 1.1 µM (active)
OVCAR-8
  GI50: 1.94 µM (inactive)
RPMI-8226
  GI50: 5.69 µM (inactive)
SK-MEL-2
  GI50: 0.955 µM (active)
SK-OV-3
  GI50: 1.62 µM (inactive)
T47D
  GI50: 0.418 µM (active)
UO-31
  GI50: > 38.5 µM (inactive)

## C[N+]1(CCC(=O)c2ccccc2)CCC2CCC(C2)C1 (stereo not drawn)
786-0
  GI50: > 100 µM (inactive)
A498
  GI50: > 100 µM (inactive)
BT-549
  GI50: > 100 µM (inactive)
HCT-116
  GI50: > 100 µM (inactive)
HCT-15
  GI50: > 100 µM
HT-29
  GI50: > 100 µM (inactive)
IGROV-1
  GI50: > 100 µM (inactive)
K562
  GI50: > 100 µM (inactive)
LOX IMVI
  GI50: > 100 µM (inactive)
M14
  GI50: > 100 µM (inactive)
MDA-MB-435
  GI50: > 100 µM (inactive)
NCI-H23
  GI50: > 100 µM (inactive)
OVCAR-3
  GI50: > 100 µM (inactive)
OVCAR-8
  GI50: > 100 µM (inactive)
RPMI-8226
  GI50: > 100 µM (inactive)
SK-MEL-2
  GI50: > 100 µM (inactive)
SK-OV-3
  GI50: > 100 µM (inactive)
T47D
  GI50: > 100 µM (inactive)
UO-31
  GI50: > 100 µM (inactive)

## CCOC(=O)/C=C(/OCC)[C@@H]1C(C(=O)c2ccc(Cl)cc2)[C@@H]1/C(=C\C(=O)OCC)OCC (stereo partly drawn)
786-0
  GI50: > 33.7 µM (inactive)
A498
  GI50: 8.89 µM (inactive)
BT-549
  GI50: 48.5 µM (inactive)
HCT-116
  GI50: 5.18 µM (inactive)
HCT-15
  GI50: > 33 µM
HT-29
  GI50: 7.53 µM (inactive)
IGROV-1
  GI50: 56.5 µM (inactive)
K562
  GI50: 2.62 µM (inactive)
LOX IMVI
  GI50: 24.3 µM (inactive)
M14
  GI50: 14.5 µM (inactive)
MDA-MB-435
  GI50: 6.58 µM (inactive)
NCI-H23
  GI50: 11.7 µM (inactive)
OVCAR-3
  GI50: 7.57 µM (inactive)
OVCAR-8
  GI50: 6.56 µM (inactive)
RPMI-8226
  GI50: 2.79 µM (inactive)
SK-MEL-2
  GI50: 56.4 µM (inactive)
SK-OV-3
  GI50: 27.2 µM (inactive)
T47D
  GI50: 6.01 µM (inactive)
UO-31
  GI50: 4.53 µM (inactive)

## CCOP(=O)(OCC)C1=C(c2ccccc2)OC(N)=C(C#N)C1c1ccc(Cl)cc1 (stereo not drawn)
786-0
  GI50: > 100 µM (inactive)
A498
  GI50: > 100 µM (inactive)
BT-549
  GI50: > 100 µM (inactive)
HCT-116
  GI50: > 100 µM (inactive)
HCT-15
  GI50: > 100 µM
HT-29
  GI50: > 100 µM (inactive)
IGROV-1
  GI50: > 100 µM (inactive)
K562
  GI50: > 100 µM (inactive)
LOX IMVI
  GI50: > 100 µM (inactive)
M14
  GI50: > 100 µM (inactive)
MDA-MB-435
  GI50: > 100 µM (inactive)
NCI-H23
  GI50: > 100 µM (inactive)
OVCAR-3
  GI50: > 100 µM (inactive)
OVCAR-8
  GI50: > 100 µM (inactive)
RPMI-8226
  GI50: > 100 µM (inactive)
SK-MEL-2
  GI50: > 100 µM (inactive)
SK-OV-3
  GI50: > 100 µM (inactive)
T47D
  GI50: > 100 µM (inactive)
UO-31
  GI50: > 100 µM (inactive)

## COc1ccc(C(C)NNC(=O)c2cc[n+]([BH2-]C#N)cc2)cc1OC (stereo not drawn)
786-0
  GI50: > 100 µM (inactive)
A498
  GI50: > 100 µM (inactive)
BT-549
  GI50: > 100 µM (inactive)
HCT-116
  GI50: > 100 µM (inactive)
HCT-15
  GI50: > 100 µM
HT-29
  GI50: > 100 µM (inactive)
IGROV-1
  GI50: > 100 µM (inactive)
K562
  GI50: > 100 µM (inactive)
LOX IMVI
  GI50: > 100 µM (inactive)
M14
  GI50: > 100 µM (inactive)
MDA-MB-435
  GI50: > 100 µM (inactive)
NCI-H23
  GI50: > 100 µM (inactive)
OVCAR-3
  GI50: > 100 µM (inactive)
OVCAR-8
  GI50: > 100 µM (inactive)
RPMI-8226
  GI50: > 100 µM (inactive)
SK-MEL-2
  GI50: > 100 µM (inactive)
SK-OV-3
  GI50: 54.3 µM (inactive)
T47D
  GI50: > 100 µM (inactive)
UO-31
  GI50: > 100 µM (inactive)

## O=C(O)COc1cc(-c2ccccc2)nc2ccccc12
786-0
  GI50: 81.8 µM (inactive)
A498
  GI50: 65.3 µM (inactive)
BT-549
  GI50: > 100 µM (inactive)
HCT-116
  GI50: 36.8 µM (inactive)
HCT-15
  GI50: 36.9 µM
HT-29
  GI50: 35.4 µM (inactive)
IGROV-1
  GI50: 56.4 µM (inactive)
K562
  GI50: 36.8 µM (inactive)
LOX IMVI
  GI50: 99.8 µM (inactive)
M14
  GI50: 71 µM (inactive)
MDA-MB-435
  GI50: 16 µM (inactive)
NCI-H23
  GI50: 77.6 µM (inactive)
OVCAR-3
  GI50: > 100 µM (inactive)
OVCAR-8
  GI50: > 100 µM (inactive)
RPMI-8226
  GI50: 86.7 µM (inactive)
SK-MEL-2
  GI50: > 100 µM (inactive)
SK-OV-3
  GI50: 73.3 µM (inactive)
T47D
  GI50: > 100 µM (inactive)
UO-31
  GI50: 61.4 µM (inactive)
